Assay results published in patent US8242111B2, “Cyclic inhibitors of 11β-hydroxysteroid dehydrogenase 1” (Vitae Pharmaceuticals, Inc., priority 2008, dated 2012).

Legend:
human 11β-HSD1 [1] = molecular target: T1, human 11β-HSD1 (Homo sapiens, UniProt P28845); assay: Biological Test Example 1: inhibition of a microsomal preparation of 11β-HSD1 (SPA); assay type: biochemical; conditions: for inhibition at 0.1 µM: read-out: Average % inhibition at 100 nM
T1 construct: expressed in transfected cells; host or cells: CHO cells (microsomes)

human 11β-HSD1 [2] = molecular target: T1, human 11β-HSD1; assay: Biological Test Example 4: inhibition of microsomal 11β-HSD1 in the presence of 50% human plasma; assay type: biochemical; conditions: examples; for IC50: 50% human plasma; for Shift: IC50 in Biological Test Example 4 divided by IC50 in Biological Test Example 1
[3] = Biological Test Example 1, read-out: IC50 Range
[4] = Biological Test Example 1 IC50 (nM), examples
[5] = read-out: Biological Test Example 1 IC50, comparator compounds

T1 sequence (P28845 whole entry): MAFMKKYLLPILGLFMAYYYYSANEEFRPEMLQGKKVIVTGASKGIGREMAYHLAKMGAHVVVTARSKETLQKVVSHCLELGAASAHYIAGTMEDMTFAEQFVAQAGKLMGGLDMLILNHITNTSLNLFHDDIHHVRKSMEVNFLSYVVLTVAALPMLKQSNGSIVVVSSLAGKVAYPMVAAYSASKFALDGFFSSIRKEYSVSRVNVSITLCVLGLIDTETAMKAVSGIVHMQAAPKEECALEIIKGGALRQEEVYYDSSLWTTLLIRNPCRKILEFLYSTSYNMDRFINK

Compound | IC50 (human 11β-HSD1 [1]; [3]) | IC50 (human 11β-HSD1 [1]; [4]) | inhibition at 0.1 µM (human 11β-HSD1 [1]) | IC50 (human 11β-HSD1 [2]) | Shift (human 11β-HSD1 [2]) | IC50 (human 11β-HSD1 [1]; [5])
CC(C)(O)C[C@]1(c2ccccc2)CCN([C@H]2CCCN(c3ncccc3C(F)(F)F)C2)C(=O)O1 [Example 2, (S)-6-(2-hydroxy-2-methylpropyl)-6-phenyl-3-((S)-1-(3-(trifluoromethyl)pyridin-2-yl)piperidin-3-yl)-1,3-oxazinan-2-one] | < 100 nM | 22.6 nM | 77.8% | 210 nM | 9.3 | –
CC(C)(O)C[C@]1(c2ccccc2)CCN([C@H]2CCN(c3ccc(C(F)(F)F)cn3)C2)C(=O)O1 [Example 15, (S)-6-(2-hydroxy-2-methylpropyl)-6-phenyl-3-((S)-1-(5-(trifluoromethyl)pyridin-2-yl)pyrrolidin-3-yl)-1,3-oxazinan-2-one] | < 100 nM | 4.3 nM | 92.2% | 37.6 nM | 8.7 | –
CN(C)C(=O)c1ccc(N2CCC[C@H](N3CC[C@](CCCO)(c4ccc(F)cc4)OC3=O)C2)nc1 [Example 20, 6-((S)-3-((R)-6-(4-fluorophenyl)-6-(3-hydroxpropyl)-2-oxo-1,3-oxazinan-3-yl)piperidin-1-yl)-N,N-dimethylnicotinamide] | < 100 nM | 27.4 nM | 72.5% | – | – | –
COC(=O)c1cnc(N2CCC[C@H](N3CC[C@](CC(C)(C)O)(c4ccccc4)OC3=O)C2)nc1 [Example 10] | < 100 nM | 5.5 nM | 85.8% | 69.2 nM | 12.7 | –
CC(C)(O)C[C@]1(c2ccccc2)CCN([C@H]2CCCN(c3ncccc3F)C2)C(=O)O1 [Example 1, (S)-3-((S)-1-(3-fluoropyridin-2-yl)piperidin-3-yl)-6-(2-hydroxy-2-methylpropyl)-6-phenyl-1,3-oxazinan-2-one] | < 100 nM | 12.7 nM | 85.5% | – | – | –
NC(=O)c1ccc(N2CCC[C@H](N3CC[C@](CCCO)(c4ccc(F)cc4)OC3=O)C2)nc1 [Example 18, 6-((S)-3-((R)-6-(4-fluorophenyl)-6-(3-hydroxypropyl)-2-oxo-1,3-oxazinan-3-yl)piperidin-1-yl)nicotinamide] | < 100 nM | 26.4 nM | 81.6% | – | – | –
Cc1cc(N2CCC[C@H](N3CC[C@](CC(C)(C)O)(c4ccccc4)OC3=O)C2)nc(C)n1 [Example 9, (S)-3-((S)-1-(2,6-dimethylpyrimidin-4-yl)piperidin-3-yl)-6-(2-hydroxy-2-methylpropyl)-6-phenyl-1,3-oxazinan-2-one] | < 100 nM | 84.3 nM | 40.2% | – | – | –
COc1cnc(N2CCC[C@H](N3CC[C@](CC(C)(C)O)(c4ccccc4)OC3=O)C2)nc1 [Example 12, (S)-6-(2-hydroxy-2-methylpropyl)-3-((S)-1-(5-methoxypyrimidin-2-yl)piperidin-3-yl)-6-phenyl-1,3-oxazinan-2-one] | < 100 nM | 4.3 nM | 91.7% | 10.4 nM | 2.4 | –
CC(C)(O)C[C@]1(c2ccccc2)CCN([C@H]2CCCN(c3ncc(F)cn3)C2)C(=O)O1 [Example 7, (S)-3-((S)-1-(5-fluoropyrimidin-2-yl)piperidin-3-yl)-6-(2-hydroxy-2-methylpropyl)-6-phenyl-1,3-oxazinan-2-one] | < 100 nM | 6.1 nM | 89.5% | 14.8 nM | 2.4 | –
CC(C)(O)C[C@]1(c2ccccc2)CCN([C@H]2CCCN(c3ccnc(C(F)(F)F)n3)C2)C(=O)O1 [Example 11, (S)-6-(2-hydroxy-2-methylpropyl)-6-phenyl-3-((S)-1-(2-(trifluoromethyl)pyrimidin-4-yl)piperidin-3-yl)-1,3-oxazinan-2-one] | < 100 nM | 19.1 nM | 75.3% | – | – | –
(S)-6-(2-hydroxy-2-methylpropyl)-6-phenyl-3-((S)-1-(3-(trifluoromethyl)pyridin-2-yl)piperidin-3-yl)-1,3-oxazinan-2-one [Example 2] | – | – | – | – | – | 1.8 nM
N#Cc1ccc(N2CCC[C@H](N3CC[C@](CCCO)(c4ccc(F)cc4)OC3=O)C2)nc1 [Example 17, 6((S)-3-((R)-6-(4-fluorophenyl)-6-(3-hydroxypropyl)-2-oxo-1,3-oxazinan-3-yl)piperidin-1-yl)nicotinonitrile] | < 100 nM | – | 94.7% | – | – | –
Cc1nnc(N2CCC[C@H](N3CC[C@](CC(C)(C)O)(c4ccccc4)OC3=O)C2)cc1Cl [Example 22, (S)-3-((S)-1-(5-chloro-6-methylpyridazin-3-yl)piperidin-3-yl)-6-(2-hydroxy-2-methylpropyl)-6-phenyl-1,3-oxazinan-2-one] | 190 nM | > 100 nM | 20.9% | – | – | –
CC(C)(O)C[C@]1(c2ccccc2)CCN([C@H]2CCCN(c3cc(C(F)(F)F)ccn3)C2)C(=O)O1 [Example 3, (S)-6-(2-hydroxy-2-methylpropyl)-6-phenyl-3-((S)-1-(4-(trifluoromethyl)pyridin-2-yl)piperidin-3-yl)-1,3-oxazinan-2-one] | < 100 nM | 4.4 nM | 91.3% | 68.7 nM | 15.6 | –
(S)-3-((S)-1-(3-fluoropyridin-2-yl)piperidin-3-yl)-6-(2-hydroxy-2-methylpropyl)-6-phenyl-1,3-oxazinan-2-one [Example 1] | – | – | – | – | – | 0.77 nM
O=C1O[C@@](CCCO)(c2ccc(F)cc2)CCN1[C@H]1CCCN(c2ccc(C(F)(F)F)cn2)C1 [Example 16, (R)-6-(4-fluorophenyl)-6-(3-hydroxypropyl)-3-((S)-1-(5-(trifluoromethyl)pyridin-2-yl)piperidin-3-yl)-1,3-oxazinan-2-one] | < 100 nM | 1.4 nM | 94.9% | 14.4 nM | 10.0 | –
CC(C)(O)C[C@]1(c2ccccc2)CCN([C@H]2CCN(c3nccc(C(F)(F)F)n3)C2)C(=O)O1 [Example 23, (S)-6-(2-hydroxy-2-methylpropyl)-6-phenyl-3-((S)-1-(4-(trifluoromethyl)pyrimidin-2-yl)pyrrolidin-3-yl)-1,3-oxazinan-2-one] | < 100 nM | 5.8 nM | 94.1% | 52.8 nM | 9.2 | –
CC(C)(O)C[C@]1(c2ccccc2)CCN([C@H]2CCN(c3ncc(Cl)cn3)C2)C(=O)O1 [Example 14, (S)-3-((S)-1-(5-chloropyrimidin-2-yl)pyrrolidin-3-yl)-6-(2-hydroxy-2-methylpropyl)-6-phenyl-1,3-oxazinan-2-one] | < 100 nM | 3.5 nM | 93.8% | 7.8 nM | 2.2 | –
Cc1cnc(N2CCC[C@H](N3CC[C@](CC(C)(C)O)(c4ccccc4)OC3=O)C2)s1 [Example 13, (S)-6-(2-hydroxy-2-methylpropyl)-3-((S)-1-(5-methylthiazol-2-yl)piperidin-3-yl)-6-phenyl-1,3-oxazinan-2-one] | < 100 nM | 13.5 nM | 90.4% | – | – | –
CC(C)(O)C[C@]1(c2ccccc2)CCN([C@H]2CCCN(c3ccc(C(F)(F)F)cn3)C2)C(=O)O1 [Example 4, (S)-6-(2-hydroxy-2-methylpropyl)-6-phenyl-3-((S)-1-(5-(trifluoromethyl)Pyridin-2-yl)piperidin-3-yl)-1,3-oxazinan-2-one] | < 100 nM | 4.1 nM | 89.8% | 21.6 nM | 5.3 | –
CNC(=O)c1ccc(N2CCC[C@H](N3CC[C@](CCCO)(c4ccc(F)cc4)OC3=O)C2)nc1 [Example 19, 6-((S)-3-((R)-6-(4-fluorophenyl)-6-(3-hydroxypropyl)-2-oxo-1,3-oxazinan-3-yl)piperidin-1-yl)-N-methylnicotinamide] | < 100 nM | 65.6 nM | 55.2% | – | – | –
CC(C)(O)C[C@]1(c2ccccc2)CCN([C@H]2CCCN(c3ncc(C(=O)NC(C)(C)C)s3)C2)C(=O)O1 [Example 21, N-tert-butyl-2-((S)-3-((S)-6-(2-hydroxy-2-methylpropyl)-2-oxo-6-phenyl-1,3-oxazinan-3-yl)piperidin-1-yl)thiazole-5-carboxamide] | 190 nM | > 100 nM | 27.3% | – | – | –
CC(C)(O)C[C@]1(c2ccccc2)CCN([C@H]2CCCN(c3cccc(C(F)(F)F)n3)C2)C(=O)O1 [Example 5, (S)-6-(2-hydroxy-2-methylpropyl)-6-phenyl-3-((S)-1-(6-(trifluoromethyl)pyridin-2-yl)piperidin-3-yl)-1,3-oxazinan-2-one] | < 100 nM | 11.8 nM | 86% | – | – | –
(S)-6-(2-hydroxy-2-methylpropyl)-6-phenyl-3-((S)-1-(6-(trifluoromethyl)pyridin-2-yl)piperidin-3-yl)-1,3-oxazinan-2-one [Example 5] | – | – | – | – | – | 0.51 nM
COc1cnc(N2CC[C@H](N3CC[C@](CC(C)(C)O)(c4ccccc4)OC3=O)C2)nc1 [Example 24, (S)-6-(2-hydroxy-2-methylpropyl)-3-((S)-1-(5-methoxypyrimidin-2-yl)pyrrolidin-3-yl)-6-phenyl-1,3-oxazinan-2-one] | < 100 nM | 42.3 nM | 67.8% | – | – | –
(S)-3-((S)-1-(5-fluoropyrimidin-2-yl)piperidin-3-yl)-6-(2-hydroxy-2-methylpropyl)-6-phenyl-1,3-oxazinan-2-one [Example 7] | – | – | – | – | – | 0.99 nM
